In patent US20130012432A1, “Peptides for Treatment of Obesity” (Novo Nordisk A/S, priority 2010, published 2013):
≈ marks a conversion by molar mass, not a printed value. Positions of bridges follow the written chain, without caps; N, C: chain ends. Non-standard residues stand in square brackets, D forms with d. Residues, ends and D or L forms follow the SMILES beside them. Groups on a side chain read outwards from the residue. *: point of attachment. Palmitoyl(16-(5-tetrazolyl)) = O=C(CCCCCCCCCCCCCCCc1nnn[nH]1)*; Lys(CH2CO2H)2 = N[C@@H](CCCCN(CC(=O)O)CC(=O)O)C(=O)O; Hyp = O=C(O)[C@@H]1C[C@@H](O)CN1; Orn = NCCC[C@H](N)C(=O)O; Dab = NCC[C@H](N)C(=O)O; AEEA = NCCOCCOCC(=O)O

Tests used:
[1] = physchem
Method: From a stock solution in vehicle, either H2O or 10 mM phosphate, containing 1 mg (as weighed) compound per ml, 8-11 aliquots are withdrawn and pH-adjusted individually with HCl/NaOH, to cover the whole pH range.

[2] = molecular target: MC1 receptor (Homo sapiens, UniProt Q01726); assay: biochemical
Method: Assay (IV)—Melanocortin Receptor 1 (MC1) Binding Assay
The MC1 receptor binding assay was performed on BHK cell membranes stably expressing the MC1 receptor. The assay was performed in a total volume of 250 μl: 25 μl of ^125NDP-α-MSH (22 pM in final concentration), 25 μl of test compound/control and 200 μl of cell membrane (25 μg/ml). Test compounds were dissolved in DMSO. Radioactively labeled ligand, membranes and test compounds were diluted in buffer: 25 mM HEPES, pH 7.4, 0.1 mM CaCl2, 1 mM MgSO4, 1 mM EDTA, 0.1% HSA and 0.005% Tween™ 20. Alternatively, HSA may be substituted with ovalbumin. The samples were incubated at 30° C. for 90 min. in Costar round-bottom microtiter plates. Incubation was terminated by filtration on a Packard harvester filtermate. Rapid filtration through Packard Unifilter-96 GF/B filters pre-treated with polyetylenimine (PerkinElmer 6005277). The filters were washed with ice-cold 0.9% NaCl 8-10 times. The plates were air-dried at app. 55° C. for 30 min, and 50 μl Microscint 0 (Packard, cat. No. 6013616) was added to each well. The plates were counted in a Topcounter (1 min/well).
The data were analysed by non-linear regression analysis of binding curves, using the Windows™ program GraphPad™ Prism (GraphPad Software, USA).

Sequence of MC1 receptor (Q01726 whole entry): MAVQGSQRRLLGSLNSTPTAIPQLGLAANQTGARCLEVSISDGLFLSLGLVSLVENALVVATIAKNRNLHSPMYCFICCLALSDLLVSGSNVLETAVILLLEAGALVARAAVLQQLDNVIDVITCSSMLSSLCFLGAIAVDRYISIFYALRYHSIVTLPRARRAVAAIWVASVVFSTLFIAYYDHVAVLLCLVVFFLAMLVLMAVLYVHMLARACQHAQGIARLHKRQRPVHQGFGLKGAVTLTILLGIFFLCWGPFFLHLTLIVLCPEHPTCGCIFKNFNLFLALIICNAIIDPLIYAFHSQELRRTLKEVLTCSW

Compound	solubility ([1]; pH 6.6, Solubility Conc.) [µM]	solubility ([1]; pH 6.9, Solubility Conc.) [µM]	solubility ([1]; pH 7.2, Solubility Conc.) [µM]	solubility ([1]; pH 7.3, Solubility Conc.) [µM]	solubility ([1]; pH 7.4, Solubility Conc.) [µM]	solubility ([1]; pH 7.5, Solubility Conc.) [µM]	solubility ([1]; pH 7.6, Solubility Conc.) [µM]	solubility ([1]; pH 7.8, Solubility Conc.) [µM]	solubility ([1]; pH 8.1, Solubility Conc.) [µM]	Ki [2] [µM]	solubility ([1]; pH 6.7, Solubility Conc.) [µM]	solubility ([1]; pH 7, Solubility Conc.) [µM]	solubility ([1]; pH 7.9, Solubility Conc.) [µM]	solubility ([1]; pH 6.4, Solubility Conc.) [µM]	solubility ([1]; pH 8.6, Solubility Conc.) [µM]	solubility ([1]; pH 5.7, Solubility Conc.) [µM]	solubility ([1]; pH 6.8, Solubility Conc.) [µM]
CC(=O)N[C@H]1CCC(=O)NCCCC[C@@H](C(=O)N2CCC[C@H]2C(=O)N2CCC[C@H]2C(=O)N[C@@H](CCCNC(=N)N)C(=O)N[C@@H](CC(=O)O)C(=O)N[C@@H](CCCCN(CC(=O)O)CC(=O)O)C(=O)N[C@@H](CCCCNC(=O)COCCOCCNC(=O)CCCCCCCCCCCCCCCc2nnn[nH]2)C(N)=O)NC(=O)[C@H](Cc2c[nH]c3ccccc23)NC(=O)[C@H](CCCNC(=N)N)NC(=O)[C@@H](Cc2ccccc2)NC(=O)[C@H](Cc2c[nH]cn2)NC1=O [Example 27, Ac-c[Glu-His-D-Phe-Arg-Trp-Lys]-Pro-Pro-Arg-Asp-Lys(biscarboxymethyl)-Lys[(2-{2-[16-(tetrazol-5-yl)hexadecanoylamino]ethoxy}ethoxy)acetyl]-NH2] (Ac-EH[dF]RWKPPRD[Lys(CH2CO2H)2]K([AEEA-Palmitoyl(16-(5-tetrazolyl))])-NH2; lactam 1-6)	42 (≈ 93 µg/mL)	65 (≈ 144 µg/mL)	263 (≈ 582 µg/mL)	394 (≈ 873 µg/mL)	459 (≈ 1020 µg/mL)	474 (≈ 1050 µg/mL)	521 (≈ 1150 µg/mL)	481 (≈ 1070 µg/mL)	435 (≈ 963 µg/mL)	> 10							
CC(=O)N[C@H]1CCC(=O)NCC[C@@H](C(=O)N2C[C@H](O)C[C@H]2C(=O)N2C[C@H](O)C[C@H]2C(=O)N[C@@H](CCCNC(=N)N)C(=O)N[C@@H](CC(=O)O)C(=O)N[C@@H](CCCCN(CC(=O)O)CC(=O)O)C(=O)N[C@@H](CCCCNC(=O)COCCOCCNC(=O)CCCCCCCCCCCCCCCc2nnn[nH]2)C(N)=O)NC(=O)[C@H](Cc2c[nH]c3ccccc23)NC(=O)[C@H](CCCNC(=N)N)NC(=O)[C@@H](Cc2ccccc2)NC(=O)[C@H](Cc2c[nH]cn2)NC1=O [Example 32, Ac-c[Glu-His-D-Phe-Arg-Trp-Dab]-Hyp-Hyp-Arg-Asp-Lys(biscarboxymethyl)-Lys[(2-{2-[16-(tetrazol-5-yl)hexadecanoylamino]ethoxy}ethoxy)acetyl]-NH2] (Ac-EH[dF]RW[Dab][Hyp][Hyp]RD[Lys(CH2CO2H)2]K([AEEA-Palmitoyl(16-(5-tetrazolyl))])-NH2; lactam 1-6)			89 (≈ 197 µg/mL)			258 (≈ 572 µg/mL)	324 (≈ 719 µg/mL)	640 (≈ 1420 µg/mL)	230 (≈ 510 µg/mL)	> 10	40 (≈ 88.7 µg/mL)	60 (≈ 133 µg/mL)	674 (≈ 1500 µg/mL)				
CC(=O)N[C@H]1CCNC(=O)C[C@@H](C(=O)N2CCC[C@H]2C(=O)N2CCC[C@H]2C(=O)N[C@@H](Cc2c[nH]cn2)C(=O)N[C@@H](CCC(=O)O)C(=O)N[C@@H](CCCCN(CC(=O)O)CC(=O)O)C(=O)N[C@@H](CCCCNC(=O)COCCOCCNC(=O)CCCCCCCCCCCCCCCc2nnn[nH]2)C(N)=O)NC(=O)[C@H](Cc2c[nH]c3ccccc23)NC(=O)[C@H](CCCNC(=N)N)NC(=O)[C@@H](Cc2ccccc2)NC(=O)[C@H](Cc2c[nH]cn2)NC1=O [Example 33, Ac-c[Dab-His-D-Phe-Arg-Trp-Asp]-Pro-Pro-His-Glu-Lys(biscarboxymethyl)-Lys[(2-{2-[16-(tetrazol-5-yl)hexadecanoylamino]ethoxy}ethoxy)acetyl]-NH2] (Ac-[Dab]H[dF]RWDPPHE[Lys(CH2CO2H)2]K([AEEA-Palmitoyl(16-(5-tetrazolyl))])-NH2; lactam 1-6)	468 (≈ 1010 µg/mL)	487 (≈ 1060 µg/mL)		488 (≈ 1060 µg/mL)		503 (≈ 1090 µg/mL)		489 (≈ 1060 µg/mL)	511 (≈ 1110 µg/mL)	> 10	485 (≈ 1050 µg/mL)			122 (≈ 264 µg/mL)	473 (≈ 1030 µg/mL)		
CC(=O)N[C@H]1CCC(=O)NCCC[C@@H](C(=O)N2CCC[C@H]2C(=O)N2CCC[C@H]2C(=O)N[C@@H](CCCNC(=N)N)C(=O)N[C@@H](CC(=O)O)C(=O)N[C@@H](CCCCN(CC(=O)O)CC(=O)O)C(=O)N[C@@H](CCCCNC(=O)COCCOCCNC(=O)CCCCCCCCCCCCCCCc2nnn[nH]2)C(N)=O)NC(=O)[C@H](Cc2c[nH]c3ccccc23)NC(=O)[C@H](CCCNC(=N)N)NC(=O)[C@@H](Cc2ccccc2)NC(=O)[C@H](CCC(N)=O)NC1=O [Example 37, Ac-c[Glu-Gln-D-Phe-Arg-Trp-Orn]-Pro-Pro-Arg-Asp-Lys(biscarboxymethyl)-Lys[(2-{2-[16-(tetrazol-5-yl)hexadecanoylamino]ethoxy}ethoxy)acetyl]-NH2] (Ac-EQ[dF]RW[Orn]PPRD[Lys(CH2CO2H)2]K([AEEA-Palmitoyl(16-(5-tetrazolyl))])-NH2; lactam 1-6)	450 (≈ 986 µg/mL)		482 (≈ 1060 µg/mL)	486 (≈ 1070 µg/mL)		458 (≈ 1000 µg/mL)	467 (≈ 1020 µg/mL)			> 10		510 (≈ 1120 µg/mL)	507 (≈ 1110 µg/mL)	464 (≈ 1020 µg/mL)		95 (≈ 208 µg/mL)	453 (≈ 993 µg/mL)
